{
  "source": "PubChem BioAssay AID1259409",
  "about": "(Chemical Carcinogenesis Research Information System (CCRIS), 2018)",
  "origin": "cited, not measured here",
  "system": "rodent chemically induced tumor inhibition, incidence and multiplicity",
  "experiment": "CCRIS tumor inhibitor studies",
  "details": "Dose [Inhibitor]: 0; for outcome: Strain/Sex: SENCAR/FEMALE, Dose [Carcinogen]: 40 NMOL IN 0.2 ML ACETONE ONCE",
  "data": [
    {"smiles": "CC1(C)[C@@H](O)CC[C@]2(C)[C@H]3C(=O)C=C4[C@H]5C[C@@](C)(C(=O)O)CC[C@]5(C)CC[C@@]4(C)[C@]3(C)CC[C@@H]12", "values": [
      {"measurement": "outcome", "setting": "Carcinogen: 7,12-DIMETHYLBENZ[A]ANTHRACENE, 57-97-6, 10 UMOL IN 0.2 ML DMSO/ACETONE (1:2) 1/D BEGINNING 7 D PRIOR TO CARCINOGEN DOSE (STUDY DURATION: 16 WK), Route [Inhibitor]: DERMAL, Species: MOUSE, Target Tissue: Type of Lesion: SKIN: TUMOR", "result": "100%, 65%, 35%, not calculated at 9 wk; 100%, 100%, 0%, not significant at 16 wk"},
      {"measurement": "outcome", "setting": "Carcinogen: 7,12-DIMETHYLBENZ[A]ANTHRACENE, 57-97-6, 30 UMOL IN DMSO/ACETONE (1:2) 30 MIN PRIOR TO EACH PROMOTER DOSE (STUDY DURATION: 16 WK), Route [Inhibitor]: DERMAL, Species: MOUSE, Target Tissue: Type of Lesion: SKIN: TUMOR", "result": "100%, 10%, 90%, not calculated at 9 wk; 100%, 80%, 20%, not calculated at 16 wk"}
    ]},
    {"smiles": "CCCCCCCCCCCC", "values": [
      {"measurement": "tumour outcome (control, treated, inhibition, significance)", "setting": "Carcinogen: 4-(METHYLNITROSAMINO)-1-(3-PYRIDYL)-1-BUTANONE, 64091-91-4, 1 UMOL IN 0.1 ML CORN OIL ONCE 2 HR PRIOR TO CARCINOGEN DOSE (STUDY DURATION: 16 WK), Route [Inhibitor]: GAVAGE, Species: MOUSE, Strain/Sex: STRAIN-A/FEMALE, Target Tissue: Type of Lesion: LUNG: ADENOMA, Dose [Carcinogen]: 10 UMOL IN 0.1 ML SALINE ONCE, Promoter: NONE USED", "result": "100%, 100%, 0%, not significant"}
    ]},
    {"smiles": "C=CC(C)(O)CC/C=C(\\C)CCC=C(C)C", "note": "(centres undefined)", "values": [
      {"measurement": "tumour outcome (control, treated, inhibition, significance)", "setting": "Carcinogen: AZOXYMETHANE, 25843-45-2, 5 MG/G IN DIET FOR 22 WK BEGINNING 3 D POST LAST CARCINOGEN DOSE (STUDY DURATION: 25 WK), Route [Inhibitor]: ORAL, Species: RAT, Strain/Sex: F344/MALE, Target Tissue: Type of Lesion: DUODENUM: ADENOCARCINOMA, Dose [Carcinogen]: 15 MG/KG BW 2/WK FOR 3 WK, Promoter: NONE USED", "result": "50%, 26%, 48%, not significant"}
    ]},
    {"smiles": "CC[C@H](C)C(=O)O[C@H]1C[C@H](O)C=C2C=C[C@H](C)[C@H](CC[C@@H](O)C[C@@H](O)CC(=O)O)[C@H]21", "values": [
      {"measurement": "tumour outcome (control, treated, inhibition, significance)", "setting": "Carcinogen: 1,2-DIMETHYLHYDRAZINE, 540-73-8, 0.001% IN DRINKING WATER FOR 30 WK (STUDY DURATION: 30 WK), Route [Inhibitor]: ORAL, Species: MOUSE, Strain/Sex: ICR/FEMALE, Target Tissue: Type of Lesion: COLON: TUMOR, Dose [Carcinogen]: 10 MG/KG BW 1/WK FOR 15 WK, Promoter: NONE USED", "result": "21/34 (62%), 14/30 (47%), 24%, not significant"},
      {"measurement": "tumour outcome (control, treated, inhibition, significance)", "setting": "Carcinogen: 1,2-DIMETHYLHYDRAZINE, 540-73-8, 0.005% IN DRINKING WATER FOR 30 WK (STUDY DURATION: 30 WK), Route [Inhibitor]: ORAL, Species: MOUSE, Strain/Sex: ICR/FEMALE, Target Tissue: Type of Lesion: COLON: TUMOR, Dose [Carcinogen]: 10 MG/KG BW 1/WK FOR 15 WK, Promoter: NONE USED", "result": "21/34 (62%), 13/30 (43%), 31%, not significant"},
      {"measurement": "tumour outcome (control, treated, inhibition, significance)", "setting": "Carcinogen: 1,2-DIMETHYLHYDRAZINE, 540-73-8, 0.01% IN DRINKING WATER FOR 25 WK (STUDY DURATION: 25 WK), Route [Inhibitor]: ORAL, Species: MOUSE, Strain/Sex: ICR/FEMALE, Target Tissue: Type of Lesion: COLON: TUMOR, Dose [Carcinogen]: 10 MG/KG BW 1/WK FOR 15 WK, Promoter: NONE USED", "result": "6/15 (40%), 2/15 (13%), 68%, not significant"},
      {"measurement": "tumour outcome (control, treated, inhibition, significance)", "setting": "Carcinogen: N-METHYL-N-NITROSOUREA, 684-93-5, 1 PPM IN DRINKING WATER FOR 36 WK BEGINNING POST CARCINOGEN TREATMENT (STUDY DURATION: 40 WK), Route [Inhibitor]: ORAL, Species: RAT, Strain/Sex: F344/FEMALE, Target Tissue: Type of Lesion: COLON: ADENOCARCINOMA, Dose [Carcinogen]: 2 MG 3/WK FOR 3 WK, Promoter: NONE USED", "result": "24/30 (80%), 23/30 (77%), 4%, not significant"},
      {"measurement": "tumour outcome (control, treated, inhibition, significance)", "setting": "Carcinogen: N-METHYL-N-NITROSOUREA, 684-93-5, 5 PPM IN DRINKING WATER FOR 36 WK BEGINNING POST CARCINOGEN TREATMENT (STUDY DURATION: 40 WK), Route [Inhibitor]: ORAL, Species: RAT, Strain/Sex: F344/FEMALE, Target Tissue: Type of Lesion: COLON: ADENOCARCINOMA, Dose [Carcinogen]: 2 MG 3/WK FOR 3 WK, Promoter: NONE USED", "result": "24/30 (80%), 14/29 (48%), 40%, p<0.05"},
      {"measurement": "tumour outcome (control, treated, inhibition, significance)", "setting": "Carcinogen: N-METHYL-N-NITROSOUREA, 684-93-5, 25 PPM IN DRINKING WATER FOR 36 WK BEGINNING POST CARCINOGEN TREATMENT (STUDY DURATION: 40 WK), Route [Inhibitor]: ORAL, Species: RAT, Strain/Sex: F344/FEMALE, Target Tissue: Type of Lesion: COLON: ADENOCARCINOMA, Dose [Carcinogen]: 2 MG 3/WK FOR 3 WK, Promoter: NONE USED", "result": "24/30 (80%), 15/30 (50%), 38%, p<0.05"},
      {"measurement": "tumour outcome (control, treated, inhibition, significance)", "setting": "Carcinogen: N-METHYL-N-NITROSOUREA, 684-93-5, 200 PPM IN DRINKING WATER FOR 40 WK BEGINNING CONCURRENTLY WITH CARCINOGEN TREATMENT (STUDY DURATION: 40 WK), Route [Inhibitor]: ORAL, Species: RAT, Strain/Sex: F344/FEMALE, Target Tissue: Type of Lesion: COLON: ADENOCARCINOMA, Dose [Carcinogen]: 2 MG 3/WK FOR 2 WK, Promoter: NONE USED", "result": "11/16 (69%), 10/16 (63%), 9%, not significant"}
    ]},
    {"smiles": "Nc1c(Br)cc(Br)cc1CNC1CCC(O)CC1", "note": "(centres undefined)", "values": [
      {"measurement": "tumour outcome (control, treated, inhibition, significance)", "setting": "Carcinogen: N-METHYL-N'-NITRO-N-NITROSOGUANIDINE [70-25-7], 25 MG/KG BW 1X/2 D FOR 26 WK BEGINNING 1 WK POST LAST CARCINOGEN DOSE (STUDY DURATION: 52 WK), Route [Inhibitor]: SUBCUTANEOUS, Species: RAT, Strain/Sex: WISTAR/MALE, Target Tissue: Type of Lesion: STOMACH: TUMOR, Dose [Carcinogen]: 25 UG/ML IN DRINKING WATER FOR 25 WK (STUDY DURATION: 52 WK), Promoter: AMMONIUM ACETATE [631-61-8], SODIUM HYPOCLORITE [7681-52-9]", "result": "17/20 (85%), 6/19 (32%), 62%, p<0.01"}
    ]},
    {"smiles": "COc1c(C)c(O)c(C(C)=O)c(O)c1Cc1c(O)c(CC=C(C)C)c(O)c(C(C)=O)c1O", "values": [
      {"measurement": "tumour outcome (control, treated, inhibition, significance)", "setting": "Carcinogen: 7,12-DIMETHYLBENZ[A]ANTHRACENE, 57-97-6, 162 NMOL IN 100 µL ACETONE 2/WK FOR 20 WK BEGINNING 1 WK POST CARCINOGEN DOSE (STUDY DURATION: 21 WK), Route [Inhibitor]: DERMAL, Species: MOUSE, Strain/Sex: ICR/FEMALE, Target Tissue: Type of Lesion: SKIN: TUMOR, Dose [Carcinogen]: 100 UG ONCE, Promoter: 12-O-TETRADECANOYLPHORBOL-13-ACETATE, 16561-29-8", "result": "40%, 36%, 10%, not significant"},
      {"measurement": "tumour outcome (control, treated, inhibition, significance)", "setting": "Carcinogen: 7,12-DIMETHYLBENZ[A]ANTHRACENE, 57-97-6, 1620 NMOL IN 100 µL ACETONE 2/WK FOR 20 WK BEGINNING POST CARCINOGEN DOSE (STUDY DURATION: 21 WK), Route [Inhibitor]: DERMAL, Species: MOUSE, Strain/Sex: ICR/FEMALE, Target Tissue: Type of Lesion: SKIN: TUMOR, Dose [Carcinogen]: 100 UG ONCE, Promoter: 12-O-TETRADECANOYLPHORBOL-13-ACETATE, 16561-29-8", "result": "52%, 0%, 100%, not calculated"}
    ]}
  ]
}
